Experiments:
COX-1 = molecular target: T1, COX-1 (Homo sapiens, UniProt P23219); experiment: COX-1 enzyme inhibition study (human platelets, endogenous arachidonic acid, EIA of PGE2); format: biochemical
T1 construct: the source material was human platelets using endogenous arachidonic acid; endogenous in cells; host or cells: human platelets
Protocol: COX-1 enzyme inhibition study was performed using a protocol similar to protocols previously described (see e.g., Riendeau D, et al. in Brit. J. Pharmacol. (1997) 121:105-117; or Warner et al. in Proc. Natl. Acad.Sci. (1999) 96:7563-7568). Typically, the source material was human platelets using endogenous arachidonic acid (Vehicle 1% DMSO) at a preincubation time of 15 min at 37 Centigrades and an incubation time of 15 min at 37 Centigrades (Incubation buffer was HBSS buffer with 15mM HEPES pH7.4). Quantitative analysis was performed via EIA determination of PGE2.

COX-2 = molecular target: T2, COX-2 (Homo sapiens, UniProt P35354); experiment: COX-2 enzyme inhibition study (human recombinant, Sf9 cells, 0.3 microM arachidonic acid, PGE2 determination); format: biochemical
T2 construct: host or cells: Sf9 insect cells
T2 sequence (P35354 18-604): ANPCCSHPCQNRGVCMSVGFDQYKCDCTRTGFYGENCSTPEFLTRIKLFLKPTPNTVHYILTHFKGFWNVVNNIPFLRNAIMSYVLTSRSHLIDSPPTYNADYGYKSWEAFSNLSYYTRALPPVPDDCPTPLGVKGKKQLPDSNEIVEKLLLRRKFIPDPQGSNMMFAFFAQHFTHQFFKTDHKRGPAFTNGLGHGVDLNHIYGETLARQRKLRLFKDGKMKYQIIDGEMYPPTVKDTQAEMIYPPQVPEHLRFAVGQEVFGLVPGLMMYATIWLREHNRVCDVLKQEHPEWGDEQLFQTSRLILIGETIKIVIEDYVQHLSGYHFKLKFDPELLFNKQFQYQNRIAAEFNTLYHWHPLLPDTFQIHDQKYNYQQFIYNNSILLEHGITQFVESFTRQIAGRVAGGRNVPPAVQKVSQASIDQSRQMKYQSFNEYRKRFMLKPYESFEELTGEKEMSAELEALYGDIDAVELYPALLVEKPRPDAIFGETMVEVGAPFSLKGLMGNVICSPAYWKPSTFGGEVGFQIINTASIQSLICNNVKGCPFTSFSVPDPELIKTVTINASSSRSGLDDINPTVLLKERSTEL
Protocol: COX-2 enzyme inhibition study was performed using a protocol similar to protocols previously described (see e.g., Riendeau D, et al. in Can. J. Physiol. Pharmacol. (1997) 75:1088-11095; or Warner et al. in Proc. Natl. Acad.Sci. (1999) 96:7563-7568). Typically, the source material was human recombinant Sf9 cells using 0.3 microM arachidonic acid (Vehicle 1% DMSO) at a preincubation time of 15 min at 37 Centigrades and an incubation time of 15 min at 37 Centigrades (Incubation buffer was 100 mM Tris 1 mM Glutathione, 1 microM hematin, and 0.5mM phenol, pH7.7). Quantitative analysis was performed via ETA determination of PGE2.

T1 sequence (P23219 24-599): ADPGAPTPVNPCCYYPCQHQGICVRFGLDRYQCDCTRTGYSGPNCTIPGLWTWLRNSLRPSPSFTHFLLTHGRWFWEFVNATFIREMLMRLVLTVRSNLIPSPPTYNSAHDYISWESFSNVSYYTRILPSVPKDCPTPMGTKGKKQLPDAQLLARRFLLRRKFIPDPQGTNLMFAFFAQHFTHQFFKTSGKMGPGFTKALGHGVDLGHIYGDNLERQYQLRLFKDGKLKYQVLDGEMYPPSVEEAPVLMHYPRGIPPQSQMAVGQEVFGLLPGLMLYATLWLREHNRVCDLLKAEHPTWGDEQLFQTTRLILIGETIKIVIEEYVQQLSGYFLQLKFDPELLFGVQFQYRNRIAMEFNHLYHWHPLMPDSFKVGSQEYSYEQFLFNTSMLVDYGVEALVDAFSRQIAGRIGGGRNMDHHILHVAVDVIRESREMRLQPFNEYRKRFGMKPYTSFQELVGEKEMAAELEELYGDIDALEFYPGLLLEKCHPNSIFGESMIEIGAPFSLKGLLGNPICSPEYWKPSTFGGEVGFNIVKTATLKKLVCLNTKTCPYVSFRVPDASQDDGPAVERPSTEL

Selectivity COX-1 to COX-2 (COX-1; ratio of IC50 values, COX-1 over COX-2) | Substance | COX-1 IC50 (COX-1) [µg/mL] | COX-1 (% Inhib.) (COX-1; concentration 100 μg/ml) [%] | COX-1 (% Inhib.) (COX-1; concentration 1000 μg/ml) [%] | COX-1 (% Inhib.) (COX-1; concentration 10 mg/ml) [%] | COX-2 IC50 (COX-2) [µg/mL] | COX-2 (% Inhib.) (COX-2; concentration 100 μg/ml) [%] | COX-2 (% Inhib.) (COX-2; concentration 1000 μg/ml) [%] | COX-2 (% Inhib.) (COX-2; concentration 10 mg/ml) [%] | Selectivity COX-2 to COX-1 (COX-2; ratio of IC50 values, COX-2 over COX-1)
least 45-fold | Calcium Fructoborate | 222 | 29 | 85 | 95 | >10000 | 8 | 12 | 10 | –
– | Potassium Boroascorbate | 8570 | −5 | −2 | 69 | <100 | 77 | 73 | 71 | least 85-fold

— patent US6924269B2, “Enzyme inhibitors and methods therefor” (VDF Futureceuticals, Inc., priority 2002, dated 2005)
